From paper PMC6801405, “Discovery of 3-Arylquinoxaline Derivatives as Potential Anti-Dengue Virus Agents” (International Journal of Molecular Sciences, 2019)
“Also recorded” adds a separate entry of the source.

Assays:
DENV2 = experiment: microbe, parasite or virus in culture; type: cell-based, dengue virus
Description: Anti-DENV activities were determined by firefly luciferase activity.

[1] = Cytotoxicity assay (XTT method); type: cell-based, Human; details: human, mean ± SD
Description: (§1) For cytotoxicity tests, run in parallel with antiviral assays, plates at an initial density of 5 × 10^3 cells/well were treated with or without serial dilutions of test compounds. Cell viability was determined after 72 h at 37 °C in a humidified CO2 (5%) atmosphere by the (2,3-bis[2-methyloxy-4-nitro-5-sulfophenyl]-2H-tetrazolium-5-carboxanilide) (XTT) method.

Huh-7 cells = experiment: Cytotoxicity assay (XTT method); type: cell-based, Human
Description: as §1

DENV = DENV protein synthesis by Western blotting in Huh-7 cells; type: cell-based, dengue virus; details: 0.5, 1, 2.5 and 5 μM, three days
Description: To further confirm the anti-DENV effect of compound 19a, we treated compound 19a at indicated concentrations in Huh-7 cells for three days.
Huh-7 cells were seeded in 24-well plates at a density of 5 × 10^4 cells per well overnight and treated with indicated reagent at proper concentrations for three days. Cells were washed with cold phosphate-buffered saline (PBS) and lysed by radioimmunoprecipitation assay (RIPA) lysis buffer (50 mM Tris-HCl, pH 7.5, 150 mM NaCl, 1% Nonidet P-40, 2 mM ethylenediaminetetraacetic acid (EDTA), 1 mM ethylene glycol bis(2-aminoethyl)tetraacetic acid (EGTA), 1 mM NaVO3, 10 mM NaF, 1 mM dithiothreitol (DTT), 1 mM phenylmethylsulfonyl fluoride (PMSF), 25 μg/mL aprotinin, and 25 μg/mL leupeptin) and stored at −20 °C. The protein concentration was determined by the Bradford method. Then, 10-μg protein samples were separated by 10% SDS-PAGE and transferred onto a polyvinylidene fluoride (PVDF) membrane. The membrane was blocked with 5% non-fat dried milk and incubated with specific antibodies against GAPDH (1:10000, Genetex, Irvine, CA, USA) and COX-2 (1:1000; Cayman Chemical, Ann Arbor, ML, USA). […] The blotting signal was developed using an enhanced chemiluminescence (ECL) detection kit (PerkinElmer, Waltham, MA, USA) and was counted by the software Quantity One (Bio-Rad, Hercules, CA, USA). […]

COX-2 promoter = experiment: COX-2 promoter-based reporter assay (pCOX-2-Luc) in DENV-infected Huh-7 cells; type: cell-based, Human; details: increasing concentrations, three days
Description: We also used a COX-2 promoter-based reporter assay to evaluate the inhibitory effect of 19a on COX-2 at the transcriptional level. The pCOX-2-Luc, a plasmid encoding firefly luciferase under the control of the COX-2 promoter, was transfected into Huh-7 cells or DENV-infected Huh-7 cells and, then, these plasmid-transfected cells were incubated with 19a at increasing concentrations for three days.
Huh-7-DV-Fluc cells were seeded in 24-well plates at a density of 2 × 10^4 cells per well, and treated with the 3-arylquinoxaline compounds at two concentrations (1 and 10 μM) or 0.1% DMSO as control. After three days of incubation, the luciferase activity assay was performed using the Bright-Glo Luciferase assay system (Promega, Madison, WI, USA) according to the manufacturer’s instructions. […] After three days, protein and RNA levels were analyzed by Western blotting with a specific antibody as previously described respectively.
Figure 4 Inhibitory effect of 19a on DENV-induced cyclooxygenase-2 (COX-2) expression in Huh-7 cells. […] The results are expressed as the means ± standard deviations (SD) of triplicate experiments.

In the case of `COc1ccc(-c2nc3ccccc3nc2C(O)c2ccccc2)cc1` (stereo not shown) [Compound 19a, [3-(4-Methoxyphenyl)quinoxalin-2-yl](phenyl)methanol], the “DENV2 % Inhibition at 10 μM” value (DENV2; 10 μM, Huh-7-DV-Fluc cells, three days, mean ± SD) is reported as 82.71 ± 2.88%, the “SI (selectivity index, CC50/EC50)” value (DENV2; CC50 Huh-7 / EC50 DENV) is reported as over 155.04 and the inhibition at 1 µM (DENV2; Dengue virus, DENV2, 72 h, 1 μM, Huh-7-DV-Fluc cells, three days, mean ± SD) is reported as 36.7 ± 3.71%. For the same molecule, the EC50 (DENV2; Dengue virus, DENV2, DENV replication, mean ± SD, read-out: EC50 (concentration resulting in a 50% inhibition in virus production)) was 1290 ± 740 nM, the “fold more anti-DENV activity than ribavirin” value (DENV2; EC50 compared with ribavirin) was “approximately 10 fold” and the viability at 72 h, 20 µM ([1]; Huh-7 cells, 20 μM, 72 h, XTT, read-out: Huh-7 Cell % viability at 20 μM) was 99.7 ± 1.65%. The viability at 72 h, 200 µM ([1]; Huh-7 cells, 200 μM, 72 h, XTT, read-out: Huh-7 Cell % viability at 200 μM) was 85%, the CC50 at 72 h ([1]; uninfected Huh-7 cells, read-out: CC50 (concentration causing a 50% growth inhibition of uninfected Huh-7 cells)) was over 200 µM and the “Huh-7 Cell % viability at 200 μM” value (Huh-7 cells; 200 μM, 72 h, XTT, mean ± SD) was 85.26 ± 5.63%. For the same molecule, the cytotoxicity in words (Huh-7 cells; Huh-7 cells) was “non-cytotoxic; also recorded: no significant cell cytotoxicity”, the “DENV protein synthesis (Western blotting)” value (DENV) was “dose-dependently reduced” and the “DENV-elevated COX-2 promoter activity” value (COX-2 promoter) was “dose-dependently decreased”. It also gave a melting point of 160.4 to 161.9 °C.
